Non-standard residues stand in square brackets, D forms with d. No end group written: not given here. pS = N[C@@H](COP(=O)(O)O)C(=O)O
Test system: phosphopeptide-specific CTL
Assay: Recognition of naturally processed phosphopeptides on cancer cell lines by phosphopeptide-specific CTL (murine IFNγ ELISA)
Assay type: cell-based
Conditions: 24 hours with COV413.AAD.A4, DM331.AAD.A4, SLM2.AAD.A1, MCF7.AAD.A2, MDAMB231.AAD cancer lines and JY EBV-BLCL control
Description: FIG. 1, comprising FIGS. 1A and 1B, is a graphic illustration of the recognition of naturally processed and presented phosphorylated peptides on cancer cells by the phosphopeptide-specific CTL. Phosphopeptide-specific CTL were incubated with the following cancer cell lines or EBV-transformed B lymphoblastoid cell lines (BLCL): COV413.AAD.A4 ovarian carcinoma, DM331.AAD.A4 and SLM2.AAD.A1 melanomas, MCF7.AAD.A2 and MDAMB231.AAD breast carcinomas, and JY EBV-BLCL. Supernatants were harvested and evaluated for the presence of murine IFNγ (produced by murine CTL lines). […] The ordinate indicates murine IFNγ in pg/ml. The abscissa indicates each cell line.
CTL specific for two of the antigen peptides were generated by long term culture with the peptides. Two CTL lines specific for the antigen peptide GLLGpSPVRA, lines 6850 and 6960, SEQ ID NO: 13, and two CTL lines specific for the antigen peptide RVApSPTSGV, SEQ ID NO: 14, lines 5183 and 63 were used to detect these two antigen peptides on cancer cells. […] Supernatants were harvested 24 hours later and evaluated for the presence of murine IFN[…] (produced by murine CTL lines) by ELISA (eBioscience Ready-Set-go murine IFN[…] ELISA kit).

Row | Substance | recognition of the phosphopeptide on cell lines by phosphopeptide-specific CTL (murine IFNγ in supernatant) (CTL lines 6850 and 6960, FIG. 1A) | recognition of the phosphopeptide on cell lines by phosphopeptide-specific CTL (murine IFNγ in supernatant) (CTL lines 5183 and 63, FIG. 1B)
1 | GLLGpSPVRA (GLLG[pS]PVRA; listed as Homo sapiens) [phosphopeptide from CDC25b:p63, HLA-A2.1] | recognize the phosphopeptide on all the cancer cell lines, but not the control cell line | –
2 | RVApSPTSGV (RVA[pS]PTSGV; listed as Homo sapiens) [phosphopeptide from Insulin receptor substrate-2, HLA-A2.1] | – | recognize the phosphopeptide on all the cancer cell lines, but not the control cell line
